The values that follow come from paper PMC6299220 (mBio, 2018).

For one data set, the system named is M. tuberculosis H37Rv. As to the kind of experiment: microbe, parasite or virus in culture. The data set is classed as cell-based, Mycobacterium tuberculosis.
A short description of data set [1]: in vitro. Particulars: African green monkey.
Another data set has as its target KasA (Mycobacterium tuberculosis, UniProt P9WQD9). The data set is described as follows: Microscale thermophoresis (MST) binding assay. The note with it: 49.5 nM labeled KasA. (MST reads how a fluorescent partner responds to local heating, with and without ligand.)
A short description of data set [2]: Mouse liver microsomal (MLM) stability. The note with it: for half-life: mouse, liver microsomes. On the technique in general: Microsomes from liver hold many membrane-bound enzymes, among them those of drug oxidation.
The conditions of data set [3]: mouse, microsomes.
The next data set deals with M. tuberculosis TDR692. The data set is described as follows: microbe, parasite or virus in culture. It counts as cell-based. The note with it: Mycobacterium tuberculosis.
Data set [4] deals with M. tuberculosis 100-day-old bacilli (persisters). It counts as cell-based, Mycobacterium tuberculosis.
A further data set relates to M. avium. As to the kind of experiment: MIC, MABA. The data set is classed as cell-based. The note with it: Mycobacterium avium; M. avium ATCC wild type.
A further data set relates to M. fortuitum. The data set is described as follows: MIC, MABA. The data set is classed as cell-based. The note with it: Mycolicibacterium fortuitum; M. fortuitum ATCC wild type.
The next data set has as its system M. marinum. As to the kind of experiment: MIC, MABA. The note with it: Mycobacterium marinum; M. marinum ATCC wild type. The data set is classed as cell-based.
In data set [5] the test system is M. tuberculosis H37Rv gene expression. It counts as cell-based, Mycobacterium tuberculosis.
The next data set concerns M. smegmatis. As to the kind of experiment: MIC, MABA. It counts as cell-based. The note with it: Mycolicibacterium smegmatis; M. smegmatis wild-type.
In the next data set the test system is M. tuberculosis 210. As to the kind of experiment: microbe, parasite or virus in culture. The data set is classed as cell-based. Particulars: Mycobacterium tuberculosis.
The next data set relates to M. abscessus. The data set is described as follows: MIC, MABA. It counts as cell-based. The note with it: Mycobacteroides abscessus; M. abscessus ATCC wild type.
For the next data set, the system named is M. bovis BCG. As to the kind of experiment: microbe, parasite or virus in culture. The data set is classed as cell-based. The note with it: Mycobacterium tuberculosis variant bovis BCG.
The nature of data set [6]: in vitro. The note with it: mouse, microsomes.
Another data set can be described thus: physchem. Particulars: pH 7.4, aqueous buffer, kinetic from dmso stock.
The subject of another data set is M. tuberculosis. The note with it: cited from earlier work.
The test system of data set [7] is mycolic acid biosynthesis in M. tuberculosis H37Rv. The data set is classed as cell-based, Mycobacterium tuberculosis.
[8] abbreviates: Mycobacterium tuberculosis, H37RV.
Setting [9] is: MLM stability t1/2 without NADPH, without NADPH.

≈ marks a conversion by molar mass, not a printed value. Like-named read-outs stand apart in the source and are kept apart here.

Sequence of KasA (P9WQD9 whole entry): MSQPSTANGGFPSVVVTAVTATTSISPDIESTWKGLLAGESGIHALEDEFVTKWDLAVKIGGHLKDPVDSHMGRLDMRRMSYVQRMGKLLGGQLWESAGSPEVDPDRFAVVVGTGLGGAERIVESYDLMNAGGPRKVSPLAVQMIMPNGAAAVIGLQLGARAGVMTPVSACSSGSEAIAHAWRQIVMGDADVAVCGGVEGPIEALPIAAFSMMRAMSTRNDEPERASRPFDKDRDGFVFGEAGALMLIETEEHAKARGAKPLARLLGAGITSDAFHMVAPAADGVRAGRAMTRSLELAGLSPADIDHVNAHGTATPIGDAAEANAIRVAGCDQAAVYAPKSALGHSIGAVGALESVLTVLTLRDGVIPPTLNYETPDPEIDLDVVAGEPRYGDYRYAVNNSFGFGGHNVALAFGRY

With `CCCCS(=O)(=O)Nc1ccc2[nH]nc(C)c2c1` [5g, N-(3-Methyl-1H-indazol-5-yl)butane-1-sulfonamide], in the data set on M. tuberculosis H37Rv, the “improvement in MIC/whole-cell activity over DG167” value amounted to 2 fold. For the same compound, the MIC with M. tuberculosis H37Rv (setting [8]) was determined as 0.2 µM (≈ 0.0535 µg/mL). The CC50 in the data set “in vitro [1]” turned out to be 94 µM. On KasA, this compound came in with a dissociation constant Kd of 0.0465 ± 0.0187 µM. Besides, the half-life in [2] (MLM stability t1/2, with NADPH) is 11.5 min; in data set [2] (setting [9]), 141 min. Also, the MLM stability clint in [3] is 60.3 μl/mi/mg protein.

For the compound `NNC(=O)c1ccncc1` [INH, isoniazid], the MIC in the data set on M. tuberculosis TDR692 came to 0.2 µM (≈ 0.0274 µg/mL). In data set [4], the “killing of persister cultures” value is “minimal killing”. For the same compound, the MIC with M. avium was > 12 µM. Moreover, the MIC against M. fortuitum is > 12 µM. The MIC against M. marinum was > 12 µM. In addition, in data set [5], the “Fold change, Rv0885” value was determined as 2.044 fold; the “Fold change, Rv2706c” value was 2.3 fold; the “Fold change, Rv3269” value is listed as -2.076 fold; the “Fold change, Rv3352c” value is listed as 2.131 fold. Also, in data set [5], the “Fold change, ctpD” value worked out at 2.334 fold; the “Fold change, cysA3” value is on record as -2.027 fold; the “Fold change, fadD5” value is on record as -2.2153 fold; the “Fold change, fadD11” value is listed as -2.252 fold. In addition, in data set [5], the “Fold change, lprQ” value is on record as 2.051 fold; the “Fold change, sapM” value was found to be 2.01 fold; the “expression of the kasA, kasB, and acpM genes and the iniBAC operon” value is given as “strongly induced expression”. Moreover, the MIC in the data set with M. smegmatis is > 12 µM. Besides, the MIC against M. tuberculosis 210 worked out at 0.4 µM (≈ 0.0549 µg/mL). The MIC in the data set with M. abscessus was > 12 µM. This compound returned an MIC against M. bovis BCG of 0.4 µM (≈ 0.0549 µg/mL).

For “1-Methyl-N-pentyl-1H-indazol-6-amine [5f]”, the “Kinetic solubility in pH 7.4 PBS” value is reported as >500 µM. For the same compound, the MIC in the data set on M. tuberculosis H37Rv is listed as >100 µM. Further, the MLM stability clint in data set [2] (Table 3) stood at 56.7 μl/mi/mg protein. The “MLM stability t1/2” value in data set [2] (with NADPH) turned out to be 12.2 min. Also, the “MLM stability t1/2 without NADPH” value in data set [2] (without NADPH) was > 3,060 min.

As for `CCCCS(=O)(=O)Nc1ccc2cnn(CC)c2c1` [5a-3, N-(1-Ethyl-1H-indazol-6-yl)butane-1-sulfonamide], the half-life in “in vitro [6]” (MLM stability t1/2) is 1.29 min; in “in vitro [6]” (MLM stability t1/2 without NADPH), > 3060 min. In the data set with M. tuberculosis H37Rv (setting [8]), this compound came in with an MIC of 6.2 µM (≈ 1.74 µg/mL). Also, the kinetic solubility in the data set “physchem” came out at 472 µM (≈ 133 µg/mL). Moreover, the CC50 in the data set “in vitro [1]” was 44.4 µM. In [3], this compound displayed an MLM stability clint of 536 μl/mi/mg protein.

Consider `CC12C[C@@]34C=CC(=O)[C@@](C)(CCC(=O)Nc5c(O)ccc(C(=O)O)c5O)C3[C@H](CC1C4)O2` (stereo partly drawn) [platensimycin], for which the “whole-cell activity in M. tuberculosis” value in the data set with M. tuberculosis is 27 µM.

For `CCCCS(=O)(=O)Nc1ccc2cn[nH]c2c1` [5a-2, N-(1H-Indazol-6-yl)butane-1-sulfonamide], the figures for the MIC in the data set on M. tuberculosis H37Rv and with M. tuberculosis H37Rv (setting [8]) were >100 µM and > 100 µM, respectively. In the data set “physchem”, the kinetic solubility was > 600 µM. This compound yielded an EC50 on KasA of 1.74 µM. For the same compound, the half-life in [2] (MLM stability t1/2, with NADPH) was 12.2 min; in data set [2] (setting [9]) it was > 3060 min. The compound further came in with an MLM stability clint in [3] of 68.7 μl/mi/mg protein. Further, the “inhibition of mycolic acid biosynthesis” value in [7] is recorded as “did not show any inhibition”.

Consider `C=C/C(C)=C/[C@@]1(C)SC(=O)C(C)=C1O` [thiolactomycin], for which the “whole-cell activity in M. tuberculosis” value in the data set with M. tuberculosis is on record as 142 µM.

For orientation: Kd means a measure of binding affinity in units of concentration. As usually defined, the half-life is the time needed for the level to fall by half in the phase considered. As usually defined, the kinetic solubility is solubility judged after dilution from a stock solution rather than from solid. As a reminder, the EC50 is the concentration at which the effect is half-maximal.
